What follows are molecules tested on human plasma (assay: In-vitro anticoagulation on human plasma (APTT kit, coagulation time)). Conditions: concentration of the compound when the coagulation time (APTT) was prolonged twice.
Description: The following method was used to determine the in-vitro anticoagulation of the compound of the present invention in the human plasma. In the method, an APTT kit of the MediRox company was used to test. The APTT kit was purchased from MediRox (article number MRX930), and the human plasma was prepared internally.
The preparation of the human plasma was briefly described as follows: human plasma was collected in a blood collection tube containing sodium citrate, and centrifuged at 3,000 rpm for 10 minutes at room temperature, and plasma was collected, and packaged separately and stored at −80° C.
An APTT test process was briefly described as follows: a test compound was dissolved in DMSO to prepare a 10 mM storage solution first, then the test compound was diluted with DMSO by a triple gradient, and a final concentration of the test compound in a reaction system ranged from 217 μM to 0.03 μM. 4 μL, of test compounds at different concentrations diluted with DMSO were added to a centrifuge tube containing 180 μL of plasma, and 4 μL of DMSO was added to a blank group, shaken and mixed evenly, and incubated at 37° C. for 5 minutes. Subsequently, an APTT reagent was placed in a reagent holder according to instrument requirements, the incubated plasma sample was placed in a detection position of a coagulation analyzer, and a coagulation time was determined and recorded (s). With a final concentration of the compound as an abscissa and Ratio (Ratio=TiT0, wherein T0 was a coagulation time of a blank control, and Ti was a coagulation time of a compound to be tested) as an ordinate, a coagulation dose-effect curve was drawn by Graph Pad Prisms, and a concentration of the compound when the coagulation time was prolonged twice was calculated, which was namely a CT2 value, as shown in Table 2.

Structure (SMILES)	CT2
Cn1cc2cc(NC(=O)C(CCOC(C)(C)C)N3CC(=O)N(c4cc(Cl)ccc4-n4cc(Cl)nn4)CC3=O)ccc2n1 (stereo not drawn) [Example 122, 4-(tert-butoxy)-2-(4-(5-chloro-2-(4-chloro-1H-1,2,3-triazol-1-yl)phenyl)-2,5-dioxopiperazin-1-yl)-N-(2-methyl-2H-indazol-5-yl)butanamide]	18.7 µM
COCCC(C(=O)Nc1ccc2nn(C)cc2c1)N1CC(=O)N(c2cc(Cl)ccc2-n2cnnn2)CC1=O (stereo not drawn) [Example 32, 2-(4-(5-Chloro-2-(1H-tetrazol-1-yl)phenyl)-2,5-dioxopiperazin-1-yl)-4-methoxy-N-(2-methyl-2H-indazol-5-yl)butanamide]	6.3 µM
Cn1cc2cc(NC(=O)C(Cc3ccn(C4CC4)n3)N3CC(=O)N(c4cc(Cl)ccc4-n4cc(Cl)nn4)CC3=O)ccc2n1 (stereo not drawn) [Example 123, 2-(4-(5-chloro-2-(4-chloro-1H-1,2,3-triazol-1-yl)phenyl)-2,5-dioxopiperazin-1-yl)-3-(1-cyclopropyl-1H-pyrazol-3-yl)-N-(2-methyl-2H-indazol-5-yl)propanamide]	12.8 µM
O=C(Nc1ccc2ccnn2c1)C(Cc1ccccc1)N1CC(=O)N(c2cc(Cl)ccc2-n2cnnn2)CC1=O (stereo not drawn) [Example 22, 2-(4-(5-Chloro-2-(1H-tetrazol-1-yl)phenyl)-2,5-dioxopiperazin-1-yl)-3-phenyl-N-(pyrazolo[1.5-a]pyridin-6-yl)propanamide]	16.0 µM
Cn1cc2cc(NC(=O)C(CC3CCC3)N3CC(=O)N(c4cc(Cl)ccc4-n4cnnn4)CC3=O)ccc2n1 (stereo not drawn) [Example 39, 2-(4-(5-Chloro-2-(1H-tetrazol-1-yl)phenyl)-2,5-dioxopiperazin-1-yl)-3-cyclobutyl-N-(2-methyl-2H-indazol-5-yl)propanamide]	12.7 µM
Cn1cc2cc(NC(=O)C(Cc3cccc(F)c3)N3CC(=O)N(c4cc(Cl)ccc4-n4cc(Cl)nn4)CC3=O)ccc2n1 (stereo not drawn) [Example 46, 2-(4-(5-Chloro-2-(4-chloro-1H-1,2,3-triazol-1-yl)phenyl)-2,5-dioxopiperazin-1-yl)-3-(3-fluorophenyl)-N-(2-methyl-2H-indazol-5-yl)propanamide]	19.1 µM
Cn1cc2cc(NC(=O)C(CC3CCC3)N3CC(=O)N(c4cc(Cl)ccc4-n4cc(Cl)nn4)CC3=O)ccc2n1 (stereo not drawn) [Example 116, 2-(4-(5-chloro-2-(4-chloro-1H-1,2,3-triazol-1-yl)phenyl)-2,5-dioxopiperazin-1-yl)-3-cyclobutyl-N-(2-methyl-2H-indazol-5-yl)propanamide]	14.0 µM
Cn1cc2cc(NC(=O)C(Cc3ccncc3)N3CC(=O)N(c4cc(Cl)ccc4-n4cc(Cl)nn4)CC3=O)ccc2n1 (stereo not drawn) [Example 105, 2-(4-(5-chloro-2-(4-chloro-1H-1,2,3-triazol-1-yl)phenyl)-2,5-dioxopiperazin-1-yl)-N-(2-methyl-2H-indazol-5-yl)-3-(pyridin-4-yl)propanamide]	10.1 µM
N#Cc1ccc(NC(=O)C(Cc2ccccc2)N2CC(=O)N(c3cc(Cl)ccc3-n3cnnn3)CC2=O)cc1 (stereo not drawn) [Example 16, 2-(4-(5-chloro-2-(1H-tetrazol-1-yl)phenyl)-2,5-dioxopiperazin-1-yl)-N-(4-cyanophenyl)-3-phenylpropanamide]	15.6 µM
CNC(=O)c1ccc(NC(=O)C(Cc2ccccc2)N2CC(=O)N(c3cc(Cl)ccc3-n3cc(Cl)nn3)CC2=O)cc1F (stereo not drawn) [Example 42, 4-(2-(4-(5-Chloro-2-(4-chloro-1H-1,2,3-triazol-1-yl)phenyl)-2,5-dioxopiperazin-1-yl)-3-phenylpropanamido)-2-fluoro-N-methylbenzamide]	16.3 µM
Cn1cc2cc(NC(=O)C(Cc3ccn(C(F)F)n3)N3CC(=O)N(c4cc(Cl)ccc4-n4cc(Cl)nn4)CC3=O)ccc2n1 (stereo not drawn) [Example 132, 2-(4-(5-chloro-2-(4-chloro-1H-1,2,3-triazol-1-yl)phenyl)-2,5-dioxopiperazin-1-yl)-3-(1-(difluoromethyl)-1H-pyrazol-3-yl)-N-(2-methyl-2H-indazol-5-yl)propanamide]	12.7 µM
Cn1cc(CC(C(=O)Nc2ccc3nn(C)cc3c2)N2CC(=O)N(c3cc(Cl)ccc3-n3cc(Cl)nn3)CC2=O)cn1 (stereo not drawn) [Example 131, 2-(4-(5-chloro-2-(4-chloro-1H-1,2,3-triazol-1-yl)phenyl)-2,5-dioxopiperazin-1-yl)-3-(1-methyl-1H-pyrazol-4-yl)-N-(2-methyl-2H-indazol-5-yl)propanamide]	11.5 µM
[2H]C([2H])([2H])n1ccc(CC(C(=O)Nc2ccc3nn(C)cc3c2)N2CC(=O)N(c3cc(Cl)ccc3-n3cc(Cl)nn3)CC2=O)n1 (stereo not drawn) [Example 133, 2-(4-(5-chloro-2-(4-chloro-1H-1,2,3-triazol-1-yl)phenyl)-2,5-dioxopiperazin-1-yl)-N-(2-methyl-2H-indazol-5-yl)-3-(1-(methyl-d3)-1H-pyrazol-3-yl)propanamide]	14.8 µM
CNC(=O)c1ccc(NC(=O)C(Cc2ccc(F)cc2)N2CC(=O)N(c3cc(Cl)ccc3-n3cc(Cl)nn3)CC2=O)cc1F (stereo not drawn) [Example 134, 4-(2-(4-(5-chloro-2-(4-chloro-1H-1,2,3-triazol-1-yl)phenyl)-2,5-dioxopiperazin-1-yl)-3-(4-fluorophenyl)propanamido)-2-fluoro-N-methylbenzamide]	19.4 µM
CNC(=O)c1ccc(NC(=O)C(Cc2ccccc2)N2CC(=O)N(c3cc(Cl)ccc3-n3cnnn3)CC2=O)cn1 (stereo not drawn) [Example 29, 5-(2-(4-(5-Chloro-2-(1H-tetrazol-1-yl)phenyl)-2,5-dioxopiperazin-1-yl)-3-phenylpropanamido)-N-methylpicolinamide]	6.7 µM
NC(=O)c1ccc(NC(=O)C(Cc2ccc(F)cc2)N2CC(=O)N(c3cc(Cl)ccc3-n3cc(Cl)nn3)CC2=O)cc1F (stereo not drawn) [Example 135, 4-(2-(4-(5-chloro-2-(4-chloro-1H-1,2,3-triazol-1-yl)phenyl)-2,5-dioxopiperazin-1-yl)-3-(4-fluorophenyl)propanamido)-2-fluorobenzamide]	19.2 µM
Cn1cc2cc(NC(=O)C(Cc3cccnc3)N3CC(=O)N(c4cc(Cl)ccc4-n4cc(Cl)nn4)CC3=O)ccc2n1 (stereo not drawn) [Example 43, 2-(4-(5-Chloro-2-(4-chloro-1H-1,2,3-triazol-1-yl)phenyl)-2,5-dioxopiperazin-1-yl)-N-(2-methyl-2H-indazol-5-yl)-3-(pyridin-3-yl)propanamide]	19.6 µM

Each molecule was assayed against T1, Native human Factor XIa protease (Homo sapiens, UniProt P03951) (assay: Inhibition of activity of Factor XIa protease (chromogenic substrate S-2366)). Conditions: S-2366 1 mM, 37° C. 10 minutes, absorption at 405 nm.
T1 construct: The Native human Factor XIa protease was purchased from Abcam; purchased Abcam ab62411
T1 sequence (P03951 388-625 limits assumed): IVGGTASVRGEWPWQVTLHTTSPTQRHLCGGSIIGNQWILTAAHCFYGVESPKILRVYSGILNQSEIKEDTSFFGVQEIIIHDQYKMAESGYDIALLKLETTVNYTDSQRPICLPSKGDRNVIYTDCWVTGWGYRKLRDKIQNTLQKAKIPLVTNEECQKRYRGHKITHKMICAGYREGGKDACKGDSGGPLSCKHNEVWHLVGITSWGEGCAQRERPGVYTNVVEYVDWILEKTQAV
T1 sequence (P03951 19-387 partner limits assumed): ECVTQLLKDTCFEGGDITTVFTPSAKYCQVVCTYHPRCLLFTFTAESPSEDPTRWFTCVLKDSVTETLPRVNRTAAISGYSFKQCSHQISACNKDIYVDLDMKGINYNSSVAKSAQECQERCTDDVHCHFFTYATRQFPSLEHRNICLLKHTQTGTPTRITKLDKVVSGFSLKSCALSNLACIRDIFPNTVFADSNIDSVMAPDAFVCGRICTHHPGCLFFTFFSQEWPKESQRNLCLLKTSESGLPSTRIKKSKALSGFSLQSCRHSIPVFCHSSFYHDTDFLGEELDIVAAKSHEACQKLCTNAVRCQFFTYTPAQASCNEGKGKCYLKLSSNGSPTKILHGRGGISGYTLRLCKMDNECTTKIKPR
Assay type: biochemical
From the text: The following method was used to determine an inhibition degree of the compound of the present invention on an activity of Native human Factor XIa protease in vitro. In the method, a Factor XIa chromogenic substrate was used to test the inhibition degree on the activity of the Factor XIa protease. The Native human Factor XIa protease was purchased from Abcam (article number ab62411), and S-2366 was purchased from Chromogenix (article number 82109039). An experimental process was briefly described as follows: a test compound was dissolved in DMSO to prepare a 10 mM storage solution first, then the compound was diluted with a Factor XIa reaction buffer (100 mM Tris-HCl, 200 mM NaCl, 0.02% Tween 20, pH 7.4) by a quadruple gradient, and a final concentration of the test compound in a reaction system ranged from 10,000 nM to […]. The reaction was carried out in a 384-well microplate. 2 μL of the test compounds at different concentrations diluted with the reaction buffer were added to wells first, and 2 μL of 1% DMSO (a final concentration of DMSO in the reaction system was 0.1%) was used to replace blank and control wells. Subsequently, 8 μL of enzyme working solution (a final concentration of Factor XIa was […]) was added to each well, and 8 μL of Factor XIa reaction buffer was used to replace the blank well, centrifuged for 30 seconds, and incubated on ice for 5 minutes. Finally, 10 μL of substrate working solution (a final concentration of S-2366 was 1 mM) was added to each well, and centrifuged for 30 seconds, and the reaction was started. The solution was incubated at 37° C. for 10 minutes to determine a light absorption value at 405 nm. By comparing with a light absorption value of the control group (0.1% DMSO), a percentage inhibition rate of the compound at each concentration was calculated, and nonlinear regression analysis was carried out on value-inhibition rate with the concentration of the compound by GraphPad Prism 5 software, so as to obtain an IC50 value of the compound, as shown in Table 1.

IC50	Structure (SMILES)
49.8 nM	CCOC(=O)c1ccc(NC(=O)C(Cc2ccccc2)N2CC(=O)N(c3cc(Cl)ccc3-n3cnnn3)CC2=O)cc1 (stereo not drawn) [Example 4, Ethyl 4-(2-(4-(5-chloro-2-(1H-tetrazol-1-yl)phenyl)-2,5-dioxopiperazin-1-yl)-3-phenylpropanamido) benzoate]
43.2 nM	COc1nccc2cc(NC(=O)C(Cc3ccccc3)N3CC(=O)N(c4cc(Cl)ccc4-n4cnnn4)CC3=O)ccc12 (stereo not drawn) [Example 23, 2-(4-(5-Chloro-2-(1H-tetrazol-1-yl)phenyl)-2,5-dioxopiperazin-1-yl)-N-(1-methoxyisoquinolin-6-yl)-3-phenylpropanamide]
43.9 nM	O=C(Nc1ccc(N2CCCC2=O)cc1)C(Cc1ccccc1)N1CC(=O)N(c2cc(Cl)ccc2-n2cnnn2)CC1=O (stereo not drawn) [Example 10, 2-(4-(5-Chloro-2-(1H-tetrazol-1-yl)phenyl)-2,5-dioxopiperazin-1-yl)-N-(4-(2-oxopyrrolidin-1-yl)phenyl)-3-phenylpropanamide]
27.3 nM	NC(=O)c1ccc(NC(=O)[C@H](Cc2ccccc2)N2CC(=O)N(c3cc(Cl)ccc3-n3cc(Cl)nn3)CC2=O)cc1F [Example 137, (S)-4-(2-(4-(5-chloro-2-(4-chloro-1H-1,2,3-triazol-1-yl)phenyl)-2,5-dioxopiperazin-1-yl)-3-phenylpropanamido)-2-fluorobenzamide]

— patent publication US20230373972A1, “PIPERAZINE DERIVATIVE, PREPARATION METHOD THEREFOR AND USE THEREOF” (Zhejiang Hisun Pharmaceutical Co., Ltd., priority 2020, published 2023)
